Source: ChEMBL document CHEMBL5321281, “Synthesis and Biological Evaluation of Heterocyclic Ring-Fused 20(S)-Protopanaxadiol Derivatives as Potent Antiosteoporosis Agents” (J Med Chem, 2023)
The source made the active and inactive calls. No cut-off for these calls is given here.

Legend:
Mus musculus [1] = assay: Protective effect in ovariectomy induced osteoporosis C57BL/6 mouse model assessed as inhibition of OVX-induced osteoclast activity by analysing osteoclast area in proximal femur at 3 mg/kg, ip and measured after 6 weeks by H and E staining based microscopic analysis; assay type: functional, organism-based
Mus musculus [2] = assay: Protective effect in ovariectomy induced osteoporosis C57BL/6 mouse model assessed as inhibition of OVX-induced osteoblast activity by analysing osteoblast number in proximal femur at 3 mg/kg, ip and measured after 6 weeks by TRAP staining based microscopic analysis; assay type: functional, organism-based
[3] = Oral bioavailability in ICR mouse at 10 mg/kg and measured upto 24 hrs by LC-MS/MS analysis; assay type: ADME, organism-based; details: in vivo
BMMC [4] = assay: Anti-osteoclastogenic activity in C57/BL6 mouse BMMC cells assessed as inhibition of RANKL-stimulated osteoclastogenesis at 1 uM and compound added at day 1 to 3 (early stage) and measured after 7 days in presence of M-CSF by TRAP staining based microscopic analysis relative to control; assay type: functional; details: 168 h, time 7 day
Mus musculus [5] = assay: Protective effect in ovariectomy induced osteoporosis C57BL/6 mouse model assessed as increase in trabecular separation (Tb.Sp) in RIO of femur at 1 to 3 mg/kg, ip and measured after 6 weeks by micro-CT analysis; assay type: functional, organism-based; details: dose 1-3 mg/kg
BMMC [6] = assay: Anti-osteoclastogenic activity in C57/BL6 mouse BMMC cells assessed as inhibition of RANKL-stimulated osteoclastogenesis at 1 uM and compound added at day 3 to 5 (mid stage) and measured after 5 days in presence of M-CSF by TRAP staining based microscopic analysis relative to control; assay type: functional; details: 120 h, time 5 day
[7] = Clearance in ICR mouse at 1 mg/kg, iv and measured upto 24 hrs by LC-MS/MS analysis; assay type: ADME, organism-based; details: in vivo
MC3T3-E1 = assay: Induction of osteoblastogenesis in beta-glycerophosphate and vitamin C stimulated mouse MC3T3-E1 cells assessed as increase in ALP activity at 0.1 uM incubated for 7 days by ALP staining based microscopic analysis; assay type: functional, cell-based; details: time 7.0 day
[8] = Half life in ICR mouse at 1 mg/kg, iv and measured upto 24 hrs by LC-MS/MS analysis; assay type: ADME, organism-based; details: in vivo
[9] = Cmax in ICR mouse at 10 mg/kg, po and measured upto 24 hrs by LC-MS/MS analysis; assay type: ADME, organism-based; design: dose 10 mg/kg, time < 24 hrs, route po; details: in vivo

Compound: C=C(CCC=C(C)C)[C@H]1CC[C@]2(C)[C@@H]1[C@H](O)C[C@@H]1[C@@]3(C)Cc4cnc(C)nc4C(C)(C)[C@@H]3CC[C@]12C
- inhibition (Mus musculus [1]): Active
- inhibition (Mus musculus [2]): inactive
- bioavailability [3]: 10.5%
- inhibition at 1 µM (BMMC [4]): 98.8%
- Activity (Mus musculus [5]): Active
- inhibition at 1 µM (BMMC [6]): 94.4%
- clearance [7]: 14.2 mL/min/kg
- Activity (MC3T3-E1): Active
- half-life [8]: 20.2 min
- Cmax [9]: 823 ng/mL
